Consider 39 compounds from patent US20100029619A1, “FUSED HETEROCYCLIC COMPOUND” (TAKEDA PHARMACEUTICAL COMPANY LIMTED, priority 2006, published 2010).

Where a name gives a salt, the structure may show the parent alone.

A word on the melting point: it is the temperature of the solid-liquid transition.

Consider `Cc1ccc2nc(NC(=O)c3ccc(C(C)(C)C(=O)O)cc3)cn2c1` [Example 20], for which the melting point was 275 to 277 °C. With `CNCCNc1ccc2nc(NC(=O)c3ccc(C(C)(C)C)cc3)cn2n1` [Example 172, 4-tert-butyl-N-(6-{[2-(methylamino)ethyl]amino}imidazo[1,2-b]pyridazin-2-yl)benzamide] the figure was 200 to 201 °C; with `Cc1ccc2nc(NC(=O)c3ccc(C(C)(C)CCC(=O)O)cc3)cn2c1` [Example 22, 4-methyl-4-{4-[(6-methylimidazo[1,2-a]pyridin-2-yl)carbamoyl]phenyl}pentanoic acid], 280 to 282 °C. As for `CC(C)(CCO)c1ccc(C(=O)Nc2cn3cc(-n4ccnc4)ccc3n2)cc1` [Example 468, 4-(3-hydroxy-1,1-dimethylpropyl)-N-[6-(1H-imidazol-1-yl)imidazo[1,2-a]pyridin-2-yl]benzamide], the figure is 225 to 227 °C. Take `CC(O)c1ccc2nc(NC(=O)c3ccc(C(C)(C)C)cc3)cn2c1` (stereo not drawn) [Example 71, 4-tert-butyl-N-[6-(1-hydroxyethyl)imidazo[1,2-a]pyridin-2-yl]benzamide]: the melting point is 249 to 250 °C. With `CC(C)(CO)c1ccc(C(=O)Nc2cn3cc(-c4ccsc4)ccc3n2)cc1` [Example 466, 4-(2-hydroxy-1,1-dimethylethyl)-N-[6-(3-thienyl)imidazo[1,2-a]pyridin-2-yl]benzamide] the figure was 250 to 252 °C; with `CC(C)(C)c1ccc(C(=O)Nc2cn3nc(NCc4ccccn4)ccc3n2)cc1` [Example 161, 4-tert-butyl-N-{6-[(pyridin-2-ylmethyl)amino]imidazo[1,2-b]pyridazin-2-yl}benzamide], 196 to 197 °C; with `CC(C)(C)c1ccc(C(=O)Nc2cn3nc(N4CCCC4)ccc3n2)cc1.Cl` (hydrate or solvate), 257 to 259 °C. With `CS(=O)(=O)Nc1ccc(C(=O)Nc2cn3cc(Cl)ccc3n2)cc1` [Example 110, N-(6-chloroimidazo[1,2-a]pyridin-2-yl)-4-[(methylsulfonyl)amino]benzamide] the figure was 293 to 295 °C; with `CC(C)(c1ccc(C(=O)Nc2cn3cc(Cl)ccc3n2)cc1)c1nnn[nH]1` [Example 39, N-(6-chloroimidazo[1,2-a]pyridin-2-yl)-4-[1-methyl-1-(1H-tetrazol-5-yl)ethyl]benzamide], 266 to 267 °C. Regarding `CC(C)(C)c1ccc(C(=O)Nc2cn3nc(N)ccc3n2)cc1` [Example 148, N-(6-aminoimidazo[1,2-b]pyridazin-2-yl)-4-tert-butylbenzamide], the melting point was in the range of 267 to 268 °C.

For `CCOC(=O)CCC(C)(C)c1ccc(C(=O)Nc2cn3cc(C)ccc3n2)cc1` [Example 21, ethyl 4-methyl-4-{4-[(6-methylimidazo[1,2-a]pyridin-2-yl)carbamoyl]phenyl}pentanoate], the melting point lay within 152 to 154 °C. On to `CC(C)(CCc1nnn[nH]1)c1ccc(C(=O)Nc2cn3cc(Cl)ccc3n2)cc1` [Example 36, N-(6-chloroimidazo[1,2-a]pyridin-2-yl)-4-[1,1-dimethyl-3-(1H-tetrazol-5-yl)propyl]benzamide], for which the melting point lay in the range of 250 to 251 °C. The compound `Cn1cc(-c2ccc3nc(NC(=O)c4ccc(C(C)(C)C)cc4)cn3n2)cn1` [Example 173, 4-tert-butyl-N-[6-(1-methyl-1H-pyrazol-4-yl)imidazo[1,2-b]pyridazin-2-yl]benzamide] gave a melting point of 245 to 246 °C. As for `CC(C)c1ncc(-c2ccc3nc(NC(=O)c4ccc(C(C)(C)C)cc4)cn3n2)[nH]1.Cl`, the figure is 304 to 305 °C (dec.).

`CC(C)(C)c1ccc(C(=O)Nc2cn3c4c(ccc3n2)OCC4)cc1` [Example 14, 4-tert-butyl-N-(1,2-dihydrofuro[2,3-e]imidazo[1,2-a]pyridin-7-yl)benzamide]: the melting point is 266 to 268 °C.

For the compound `Cn1cc(-c2ccc3nc(NC(=O)c4ccc(C(C)(C)C)nc4)cn3n2)cn1` [Example 176, 6-tert-butyl-N-[6-(1-methyl-1H-pyrazol-4-yl)imidazo[1,2-b]pyridazin-2-yl]nicotinamide], the melting point was in the range of 251 to 252 °C. With `CC(C)(C(=O)NO)c1ccc(C(=O)Nc2cn3cc(Cl)ccc3n2)cc1` [Example 33, N-(6-chloroimidazo[1,2-a]pyridin-2-yl)-4-[2-(hydroxyamino)-1,1-dimethyl-2-oxoethyl]benzamide] the figure was 212 to 213 °C; with `CC(C)(CCC#N)c1ccc(C(=O)Nc2cn3cc(-n4ccnc4)ccc3n2)cc1` [Example 45, 4-(3-cyano-1,1-dimethylpropyl)-N-[6-(1H-imidazol-1-yl)imidazo[1,2-a]pyridin-2-yl]benzamide], 233 to 234 °C. As for `CC(C)(C)c1ccc(C(=O)Nc2cn3nc(N)ccc3n2)cc1.Cl`, the figure is 312 to 313 °C.

In turn, `CC(C)(C#N)c1ccc(C(=O)Nc2cn3cc(C(F)(F)F)ccc3n2)cc1` [Example 455, 4-(1-cyano-1-methylethyl)-N-[6-(trifluoromethyl)imidazo[1,2-a]pyridin-2-yl]benzamide] came in with a melting point of 230 to 231 °C. As for `Cc1cccc2nc(NC(=O)c3ccc(C(C)(C)C)cc3)cn12` [Example 65, 4-tert-Butyl-N-(5-methylimidazo[1,2-a]pyridin-2-yl)benzamide], the figure is 204 to 205 °C; as for `Cc1cccc2nc(NC(=O)c3ccc(C(C)(C)CCC(=O)O)cc3)cn12` [Example 187, 4-methyl-4-(4-{[(5-methylimidazo[1,2-a]pyridin-2-yl)amino]carbonyl}phenyl)pentanoic acid], 260 °C; as for `CC(C)(C)c1ccc(C(=O)Nc2cn3nc(NCc4cccnc4)ccc3n2)cc1` [Example 160, 4-tert-butyl-N-{6-[(pyridin-3-ylmethyl)amino]imidazo[1,2-b]pyridazin-2-yl}benzamide], 232 to 233 °C. As for `Cc1ccc2nc(NC(=O)c3ccc(C(C)(C)CCc4noc(=O)[nH]4)cc3)cn2c1` [Example 440, 4-[1,1-dimethyl-3-(5-oxo-4,5-dihydro-1,2,4-oxadiazol-3-yl)propyl]-N-(6-methylimidazo[1,2-a]pyridin-2-yl)benzamide], the melting point lay within 267 to 268 °C. With `CC(C)(C)c1ccc(C(=O)Nc2cn3nc(NCCO)ccc3n2)cc1` [Example 169, 4-tert-butyl-N-{6-[(2-hydroxyethyl)amino]imidazo[1,2-b]pyridazin-2-yl}benzamide] the figure was 231 to 233 °C; with `CC(C)(C)c1ccc(C(=O)Nc2cn3cc(-c4cccnc4)ccc3n2)cn1` [Example 102, 6-tert-butyl-N-(6-(pyridin-3-yl)imidazo[1,2-a]pyridin-2-yl)nicotinamide], 272 to 274 °C; with `CC(C)(CCc1nnn[nH]1)c1ccc(C(=O)Nc2cn3cc(-n4ccnc4)ccc3n2)cc1` [Example 46, 4-[1,1-dimethyl-3-(1H-tetrazol-5-yl)propyl]-N-[6-(1H-imidazol-1-yl)imidazo[1,2-a]pyridin-2-yl]benzamide], 266 to 267 °C. As for `CC(C)(C)c1ccc(C(=O)Nc2cn3nc(-n4ccnc4)ccc3n2)cc1` (as salt: hydrochloride) [Example 141, 4-tert-butyl-N-[6-(1H-imidazol-1-yl)imidazo[1,2-b]pyridazin-2-yl]benzamide dihydrochloride], the melting point was 298 to 300 °C. As for `CC(C)(C)c1ccc(C(=O)Nc2cn3c4c(ccc3n2)OCC4)cn1` (as salt: hydrochloride) [Example 18, 6-tert-butyl-N-(1,2-dihydrofuro[2,3-e]imidazo[1,2-a]pyridin-7-yl)nicotinamide dihydrochloride], the figure is 199 to 200 °C. As for `O=C(Nc1cn2cc(-n3ccnc3)ccc2n1)c1ccc(-c2ncc[nH]2)cc1` [Example 88, 4-(1H-imidazol-2-yl)-N-[6-(1H-imidazol-1-yl)imidazo[1,2-a]pyridin-2-yl]benzamide], the figure is 276 to 279 °C (dec.); as for `CC(C)(C(=O)O)c1ccc(C(=O)Nc2cn3cc(-c4ccoc4)ccc3n2)cc1` [Example 27, 2-methyl-2-(4-{[6-(3-furyl)imidazo[1,2-a]pyridin-2-yl]carbamoyl}phenyl)propanoic acid], 307 to 309 °C. For `O=C(Nc1cn2cc(-n3ccnc3)ccc2n1)c1ccc(-c2ccoc2)cc1` [Example 89, 4-(3-furyl)-N-[6-(1H-imidazol-1-yl)imidazo[1,2-a]pyridin-2-yl]benzamide], the melting point was in the range of 261 to 263 °C.

Compound `Cn1cc(-c2ccc3nc(NC(=O)c4ccc(C(C)(C)CO)cc4)cn3c2)cn1` [Example 462, 4-(2-hydroxy-1,1-dimethylethyl)-N-[6-(1-methyl-1H-pyrazol-4-yl)imidazo[1,2-a]pyridin-2-yl]benzamide] had a melting point of 275 to 277 °C.

`CC(=O)NCC(C)(C)c1ccc(C(=O)Nc2cn3cc(-n4ccnc4)ccc3n2)cc1` [Example 135, 4-[2-(acetylamino)-1,1-dimethylethyl]-N-[6-(1H-imidazol-1-yl)imidazo[1,2-a]pyridin-2-yl]benzamide]: the melting point is 242 to 244 °C.

`Cc1ccc2nc(NC(=O)c3ccc(C(C)(C)CCc4nnn[nH]4)cc3)cn2c1` [Example 439, 4-[1,1-dimethyl-3-(1H-tetrazol-5-yl)propyl]-N-(6-methylimidazo[1,2-a]pyridin-2-yl)benzamide] gave a melting point of 245 to 246 °C. The compound `COc1ccc(-c2ccc3nc(NC(=O)c4ccc(C(C)(C)C)cc4)cn3c2)cn1` [Example 106, 4-tert-butyl-N-[6-(6-methoxypyridin-3-yl)imidazo[1,2-a]pyridin-2-yl]benzamide] registered a melting point of 245 to 247 °C. As for `CC(=O)c1ccc2nc(NC(=O)c3ccc(C(C)(C)C)cc3)cn2n1` [Example 151, N-(6-acetylimidazo[1,2-b]pyridazin-2-yl)-4-tert-butylbenzamide], the figure is 237 to 238 °C; as for `CC(C)(CO)c1ccc(C(=O)Nc2cn3cc(-c4cn[nH]c4)ccc3n2)cc1` [Example 464, 4-(2-hydroxy-1,1-dimethylethyl)-N-[6-(1H-pyrazol-4-yl)imidazo[1,2-a]pyridin-2-yl]benzamide], 293 to 296 °C.
